Source: the NIST ThermoML archive (doi:10.1016/j.tca.2014.08.016)
Numbers after ± are expanded uncertainties.

Assay: xn = mol fraction of the nth substance listed
Conditions: Liquid; for mass density: Buoyancy - hydrostatic balance with magnetic suspension - one sinker; for viscosity: Falling or rolling sphere viscometry

C=CCCCCCC [oct-1-ene] + C=CCCCC
Conditions	mass density [kg/m3]	viscosity [mPa·s]
355.02 K, 24510 kPa, x1 = 0.2	671.58 ± 2.1	0.259 ± 0.006
355.04 K, 49030 kPa, x1 = 0.2	694.07 ± 2.1	0.317 ± 0.007
355.16 K, 98060 kPa, x1 = 0.6923	741.82 ± 2.3	0.544 ± 0.013
355.27 K, 49030 kPa, x1 = 0.6923	713.02 ± 2.2	0.398 ± 0.009
355.35 K, 196130 kPa, x1 = 0.6923	782.46 ± 2.4	0.876 ± 0.021
355.44 K, 24510 kPa, x1 = 0.6923	691.53 ± 2.1	0.327 ± 0.008
390.42 K, 196130 kPa, x1 = 0.4823	763 ± 2.4	0.614 ± 0.014
390.6 K, 196130 kPa, x1 = 0.6923	764.29 ± 2.4	0.684 ± 0.016
390.61 K, 98060 kPa, x1 = 0.4823	718.3 ± 2.2	0.392 ± 0.009
390.66 K, 24510 kPa, x1 = 0.6923	668.32 ± 2	0.258 ± 0.006
390.68 K, 98060 kPa, x1 = 0.6923	722.16 ± 2.2	0.433 ± 0.01
390.73 K, 24510 kPa, x1 = 0.4823	661.95 ± 2	0.233 ± 0.006
390.76 K, 49030 kPa, x1 = 0.4823	683.17 ± 2.1	0.286 ± 0.007
390.89 K, 49030 kPa, x1 = 0.6923	690.6 ± 2.1	0.319 ± 0.008
395.05 K, 196130 kPa, x1 = 0.2	750.63 ± 2.3	0.535 ± 0.013
395.31 K, 98060 kPa, x1 = 0.2	706.62 ± 2.2	0.345 ± 0.008
395.33 K, 49030 kPa, x1 = 0.2	668.64 ± 2	0.253 ± 0.006
395.52 K, 24510 kPa, x1 = 0.2	641.62 ± 2	0.205 ± 0.005
432.98 K, 196130 kPa, x1 = 0.2	733.67 ± 2.2	0.451 ± 0.011
433.17 K, 196130 kPa, x1 = 0.6923	744.1 ± 2.3	0.549 ± 0.013
433.2 K, 98060 kPa, x1 = 0.6923	698.66 ± 2.1	0.349 ± 0.008
433.33 K, 49030 kPa, x1 = 0.6923	664.02 ± 2	0.255 ± 0.006
433.38 K, 24510 kPa, x1 = 0.6923	641.38 ± 2	0.204 ± 0.005
433.51 K, 98060 kPa, x1 = 0.2	682.68 ± 2.1	0.289 ± 0.007
433.58 K, 49030 kPa, x1 = 0.2	642.37 ± 2	0.213 ± 0.005
433.62 K, 24510 kPa, x1 = 0.2	614.08 ± 1.9	0.169 ± 0.004
435.46 K, 196130 kPa, x1 = 0.4823	741.63 ± 2.3	0.489 ± 0.012
435.49 K, 24510 kPa, x1 = 0.4823	631.36 ± 1.9	0.184 ± 0.004
435.61 K, 98060 kPa, x1 = 0.4823	693.82 ± 2.1	0.318 ± 0.008
435.7 K, 49030 kPa, x1 = 0.4823	656.28 ± 2	0.232 ± 0.005
467.82 K, 196130 kPa, x1 = 0.4823	725.29 ± 2.2	0.447 ± 0.011
467.87 K, 196130 kPa, x1 = 0.2	715.63 ± 2.2	0.403 ± 0.009
467.95 K, 49030 kPa, x1 = 0.4823	636.15 ± 1.9	0.207 ± 0.005
467.96 K, 24510 kPa, x1 = 0.4823	610.74 ± 1.9	0.162 ± 0.004
468.04 K, 98060 kPa, x1 = 0.2	661.09 ± 2	0.262 ± 0.006
468.06 K, 98060 kPa, x1 = 0.4823	675.8 ± 2.1	0.285 ± 0.007
468.07 K, 49030 kPa, x1 = 0.2	620.58 ± 1.9	0.19 ± 0.005
468.18 K, 24510 kPa, x1 = 0.2	589.18 ± 1.8	0.148 ± 0.004
469.83 K, 98060 kPa, x1 = 0.6923	677.9 ± 2.1	0.311 ± 0.007
469.84 K, 196130 kPa, x1 = 0.6923	725.11 ± 2.2	0.482 ± 0.011
470.05 K, 49030 kPa, x1 = 0.6923	641.64 ± 2	0.224 ± 0.005
470.16 K, 24510 kPa, x1 = 0.6923	618.99 ± 1.9	0.176 ± 0.004
